{"source": "paper PMC11750672", "about": "“The in vivo metabolic pathway of Deg-AZM and in vitro investigations into the contribution of drug metabolizing enzymes and drug transporters in the drug interactions of Deg-AZM, a clinical-stage new transgelin agonist” (Frontiers in Pharmacology, 2025)", "key": {"P-gp [1]": {"system": "T1, P-gp", "T1 construct": "evaluated using Caco-2 cell monolayer both apical-to-basolateral (A-B) and basolateral-to-apical (B-A) directions; endogenous in cells; host or cells: Caco-2", "assay": "Bidirectional transport in Caco-2 cell monolayer with P-gp inhibitor quinidine", "assay_type": "in vitro ADME, human", "settings": "human, Caco-2, with quinidine 50 μM, (+) quinidine 50 μM, 37°C 1 h, n = 3", "procedure": "(§1) The human colon adenocarcinoma Caco-2 cell line was provided by Institute of Basic Medicine, Chinese Academy of Medical Sciences (Beijing, China). Caco-2 cells were cultured in a high sugar DMEM medium containing 10% (v/v) fetal bovine serum at 37°C and 5% CO2 incubator. Caco-2 cells (2.5 ×10^5/mL) was inoculated into Transwell polycarbonate membrane 12 well plate. The culture medium was changed every 2 days for the first 14 days, and then every day. After 21 consecutive days, fully differentiated cell monolayers were obtained for drug transport assays.\n(§2) Transepithelial electrical resistance (TEER) was used to indicate monolayer integrity. The electrode of the Millcell ERS-2 voltammeter was placed in HBSS solution for 20 min to pre-balance. At the same time, the culture medium was removed from the Transwell culture plate, 0.5 mL of pre-heated HBSS solution was added into the Apical (AP) of transwell, 1.5 mL of pre-heated HBSS solution was added into the Basolateral (BL) of transwell. After that, the transwell was balanced at 37°C for 20 min and then replaced the HBSS solution with the pre-heated HBSS solution, the TEER value was measured finally. Caco-2 cell monolayers with TEER >350 Ω cm^2 which means that the cells have formed a tight monolayer, were used for the experiment. The TEER value was calculated according to the following formula: TEER=TEERT ‐ TEERc×A where TEERT represented the TEER value (Ω) of the measured Transwell chamber with Caco-2 cells, TEERC was the TEER value (Ω) of the transwell chamber in the control group, and A was the membrane area of the transwell cavity (1.12 cm^2 in this experiment).\n(§3) In order to evaluate the usability of the Transwell model research, [^3H] Propranolol (0.5 μCi/mL) and [^14C] PEG4000 (1 μCi/mL) served as high-permeability and impermeability controls to verify the uptake direction on Caco-2 cell monolayer, respectively. Rhodamine 123 was used as a positive control for efflux mechanism in bidirectional transport assay on Caco-2 cell monolayer.\n(§4) The transmembrane permeability of Deg-AZM (2, 10 or 50 µM) and the potential to inhibit P-gp by Deg-AZM (2, 10 or 50 µM) were evaluated using Caco-2 cell monolayer both apical-to-basolateral (A-B) and basolateral-to-apical (B-A) directions at 37°C for 1 h, the experiments were conducted using quinidine (50 μM) as the inhibitor for P-gp. At the end of incubation, receiver and donor samples were both diluted by assay buffer and analyzed by LC-MS/MS."}, "P-gp [2]": {"target": "T2, P-gp (Homo sapiens, UniProt P08183)", "T2 construct": "evaluated using Caco-2 cell monolayer both apical-to-basolateral (A-B) and basolateral-to-apical (B-A) directions; endogenous in cells; host or cells: Caco-2", "T2 sequence (P08183 whole entry)": "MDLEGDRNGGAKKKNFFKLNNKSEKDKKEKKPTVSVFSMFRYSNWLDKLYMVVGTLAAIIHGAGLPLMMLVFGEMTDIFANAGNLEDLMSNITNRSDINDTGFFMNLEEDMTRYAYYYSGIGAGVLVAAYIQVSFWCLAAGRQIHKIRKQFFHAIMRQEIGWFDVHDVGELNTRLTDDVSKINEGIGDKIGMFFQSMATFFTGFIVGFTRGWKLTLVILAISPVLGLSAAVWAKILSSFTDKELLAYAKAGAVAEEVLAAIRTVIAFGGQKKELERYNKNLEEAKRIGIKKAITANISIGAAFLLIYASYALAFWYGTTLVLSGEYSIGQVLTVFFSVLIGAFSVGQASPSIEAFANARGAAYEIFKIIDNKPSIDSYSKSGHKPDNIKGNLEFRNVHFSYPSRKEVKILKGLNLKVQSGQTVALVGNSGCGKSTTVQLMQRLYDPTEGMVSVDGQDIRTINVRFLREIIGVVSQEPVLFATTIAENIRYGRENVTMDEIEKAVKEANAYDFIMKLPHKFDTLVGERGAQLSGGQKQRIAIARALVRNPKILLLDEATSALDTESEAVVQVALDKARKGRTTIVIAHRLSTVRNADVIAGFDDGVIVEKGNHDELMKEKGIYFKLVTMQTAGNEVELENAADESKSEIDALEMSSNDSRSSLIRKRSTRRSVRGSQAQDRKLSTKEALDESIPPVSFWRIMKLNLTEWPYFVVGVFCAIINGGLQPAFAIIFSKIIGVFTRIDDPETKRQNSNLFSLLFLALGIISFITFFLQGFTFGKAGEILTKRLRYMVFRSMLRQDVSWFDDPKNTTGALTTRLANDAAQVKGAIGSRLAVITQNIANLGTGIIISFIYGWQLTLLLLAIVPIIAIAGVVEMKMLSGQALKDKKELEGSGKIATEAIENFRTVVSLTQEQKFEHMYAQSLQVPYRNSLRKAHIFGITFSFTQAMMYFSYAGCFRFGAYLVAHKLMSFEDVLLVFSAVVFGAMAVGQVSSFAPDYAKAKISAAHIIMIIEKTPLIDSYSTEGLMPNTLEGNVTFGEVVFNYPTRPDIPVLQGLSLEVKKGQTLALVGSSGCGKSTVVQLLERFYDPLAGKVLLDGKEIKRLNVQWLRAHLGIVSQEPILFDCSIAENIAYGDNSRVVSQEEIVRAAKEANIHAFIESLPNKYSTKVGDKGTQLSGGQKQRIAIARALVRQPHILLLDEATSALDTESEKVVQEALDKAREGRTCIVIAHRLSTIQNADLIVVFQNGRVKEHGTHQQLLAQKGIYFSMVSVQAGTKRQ", "assay": "Bidirectional transport in Caco-2 cell monolayer with P-gp inhibitor quinidine", "assay_type": "in vitro ADME", "settings": "ER > 2, reduced after quinidine", "procedure": "as §1, §2, §3, §4"}, "rCYP3A4": {"target": "T3, rCYP3A4 (Homo sapiens, UniProt P08684)", "T3 construct": "purchased Research Institute for Liver Diseases Co. Ltd., Shanghai", "T3 sequence (P08684 whole entry)": "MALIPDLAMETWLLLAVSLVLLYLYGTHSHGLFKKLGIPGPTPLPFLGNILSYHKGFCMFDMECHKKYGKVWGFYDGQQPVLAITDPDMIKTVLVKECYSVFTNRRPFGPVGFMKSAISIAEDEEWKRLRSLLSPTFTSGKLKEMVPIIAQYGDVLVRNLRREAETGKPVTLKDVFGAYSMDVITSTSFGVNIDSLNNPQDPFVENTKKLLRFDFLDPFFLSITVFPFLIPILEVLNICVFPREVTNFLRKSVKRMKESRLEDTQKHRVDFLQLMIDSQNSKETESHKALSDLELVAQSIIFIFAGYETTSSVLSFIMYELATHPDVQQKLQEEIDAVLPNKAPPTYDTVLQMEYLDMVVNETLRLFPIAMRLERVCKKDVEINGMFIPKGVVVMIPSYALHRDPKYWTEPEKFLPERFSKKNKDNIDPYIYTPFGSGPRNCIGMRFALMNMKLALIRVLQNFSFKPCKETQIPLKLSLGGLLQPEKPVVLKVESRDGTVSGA", "assay": "Recombinant CYPs phenotyping assay", "assay_type": "in vitro ADME", "settings": "1 μM, 1.5 h", "procedure": "(§5) Deg-AZM (1 μM) was treated with pooled NADPH (1 mM) and recombinant CYPs (rCYP1A2, rCYP2B6, rCYP2C8, rCYP2C9, rCYP2C19, rCYP2D6, and rCYP3A4, purchased from Research Institute for Liver Diseases Co. Ltd., Shanghai) at 25 pmol/mL for 90 min. The isoform-selective probe substrates served as positive controls (same as the positive controls in HLM phenotyping assays)."}, "CYP1A2": {"system": "CYP1A2", "assay": "CYP induction (mRNA, qPCR) in human hepatocytes", "assay_type": "in vitro ADME", "settings": "for CYP1A2 induction, % of PC: PC omeprazole 50 μM", "from_the_text": "(§6) After culture and complete induction, total mRNA was extracted by TRNzol RNA Extraction Kit (purchased from Tiangen Biochemical Technology Co., Ltd., Beijing). The RNA was reverse transcribed into cDNA according to the instructions of the Transcriptor First Strand cDNA Synthesis Kit (purchased from Roche, Switzerland). Using reverse transcribed cDNA as a template, amplifying the internal reference genes of β-Actin of the sample and target genes of CYP1A2, CYP2B6, and CYP3A4 respectively to compare the expression differences."}, "CYP3A4": {"system": "CYP3A4", "assay": "CYP induction (mRNA, qPCR) in human hepatocytes", "assay_type": "in vitro ADME", "settings": "for CYP3A4 induction, % of PC: PC rifampicin 20 μM", "from_the_text": "as §6"}, "pooled HLM": {"system": "pooled HLM", "assay": "HLM phenotyping assay, control group and positive control systems", "assay_type": "in vitro ADME, human", "settings": "1 μM, HLM 0.5 mg/mL, NADPH, 90 min, control group without inhibitors", "procedure": "Deg-AZM (1 μM) was treated with pooled HLM (0.5 mg/mL) and NADPH (1 mM) for 90 min with or without seven specific inhibitors (10 µM furafylline for CYP1A2, 10 µM ticlopidine for CYP2B6, 5 µM montelukast for CYP2C8, 10 µM sulfaphenazole for CYP2C9, 10 µM ticlopidine for CYP2C19, 2.5 µM quinidine for CYP2D6, 1 µM ketoconazole for CYP3A). Isoform-selective probe substrates, 10 µM phenacetin for CYP1A2, 20 µM bupropion for CYP2B6, 2 µM amodiaquine for CYP2C8, 5 µM diclofenac for CYP2C9, 20 µM S-mephenytoin for CYP2C19, 5 µM bufuralol for CYP2D6, 2 µM midazolam for CYP3A4, were used as positive controls."}, "[3]": {"system": "inactivated monomeric enzyme", "assay": "Recombinant CYPs phenotyping assay, inactivated enzyme control", "assay_type": "in vitro ADME, human", "settings": "control group with inactivated monomeric enzyme, 1.5 h", "procedure": "as §5"}, "[4]": {"settings": "5 μM, hepatocyte batch LHuf 17905B"}, "[5]": {"settings": "25 μM, hepatocyte batch LHuf 17905B"}, "[6]": {"settings": "100 μM, hepatocyte batch LHuf 17905B"}}, "data": [{"smiles": "CCC1OC(=O)C(C)C(O)C(C)C(O)C(C)(O)CC(C)CN(C)C(C)C(O)C1(C)O", "note": "(stereo not shown) [Deg-AZM, Deglycosylated azithromycin]", "values": [{"measurement": "Papp A→B at 1 h, 2 μM", "setting": "P-gp [1]; 2 μM", "result": "0.823 ± 0.0911", "unit": "×10⁻⁶ cm/s"}, {"measurement": "Papp B→A at 1 h, 2 μM", "setting": "P-gp [1]; 2 μM", "result": "0.617 ± 0.0488", "unit": "×10⁻⁶ cm/s"}, {"measurement": "Papp A→B at 1 h, 10 μM", "setting": "P-gp [1]; 10 μM", "result": "0.471 ± 0.0908", "unit": "×10⁻⁶ cm/s"}, {"measurement": "Papp B→A at 1 h, 10 μM", "setting": "P-gp [1]; 10 μM", "result": "0.52 ± 0.119", "unit": "×10⁻⁶ cm/s"}, {"measurement": "Papp A→B at 1 h, 50 μM", "setting": "P-gp [1]; 50 μM", "result": "0.589 ± 0.0315", "unit": "×10⁻⁶ cm/s"}, {"measurement": "Papp B→A at 1 h, 50 μM", "setting": "P-gp [1]; 50 μM", "result": "0.586 ± 0.117", "unit": "×10⁻⁶ cm/s"}, {"measurement": "P-gp substrate assessment", "setting": "P-gp [2]", "result": "might be the substrate of intestinal efflux transporter P-gp"}, {"measurement": "Average residual proportion of Deg-AZM", "setting": "rCYP3A4; 25 pmol/mL CYP3A4 monomeric enzyme", "result": 75.9, "unit": "%"}, {"measurement": "Elimination proportion of Deg-AZM", "setting": "rCYP3A4; CYP3A4 monomeric enzyme", "result": "greater than 15%"}, {"measurement": "CYP1A2 induction, % of PC", "setting": "CYP1A2; 5 μM, batch HUB", "result": "−0.318", "unit": "%"}, {"measurement": "CYP1A2 induction, % of PC", "setting": "CYP1A2; 5 μM, batch LHuf 17905B", "result": "−0.507", "unit": "%"}, {"measurement": "CYP1A2 induction, % of PC", "setting": "CYP1A2; 5 μM, batch MWB", "result": 0.0293, "unit": "%"}, {"measurement": "CYP1A2 mRNA induction, times of control group", "setting": "CYP1A2; 5 μM, hepatocyte batch HUB", "result": 0.850}, {"measurement": "CYP1A2 mRNA induction, times of control group", "setting": "CYP1A2; [4]", "result": 0.721}, {"measurement": "CYP1A2 mRNA induction, times of control group", "setting": "CYP1A2; 5 μM, hepatocyte batch MWB", "result": 1.02}, {"measurement": "CYP1A2 induction, % of PC", "setting": "CYP1A2; 25 μM, batch HUB", "result": "−0.349", "unit": "%"}, {"measurement": "CYP1A2 induction, % of PC", "setting": "CYP1A2; 25 μM, batch LHuf 17905B", "result": "−0.569", "unit": "%"}, {"measurement": "CYP1A2 induction, % of PC", "setting": "CYP1A2; 25 μM, batch MWB", "result": "−0.0814", "unit": "%"}, {"measurement": "CYP1A2 mRNA induction, times of control group", "setting": "CYP1A2; 25 μM, hepatocyte batch HUB", "result": 0.835}, {"measurement": "CYP1A2 mRNA induction, times of control group", "setting": "CYP1A2; [5]", "result": 0.687}, {"measurement": "CYP1A2 mRNA induction, times of control group", "setting": "CYP1A2; 25 μM, hepatocyte batch MWB", "result": 0.948}, {"measurement": "CYP1A2 induction, % of PC", "setting": "CYP1A2; 100 μM, batch HUB", "result": 0.0545, "unit": "%"}, {"measurement": "CYP1A2 induction, % of PC", "setting": "CYP1A2; 100 μM, batch LHuf 17905B", "result": "−0.209", "unit": "%"}, {"measurement": "CYP1A2 induction, % of PC", "setting": "CYP1A2; 100 μM, batch MWB", "result": "−0.319", "unit": "%"}, {"measurement": "CYP1A2 mRNA induction, times of control group", "setting": "CYP1A2; 100 μM, hepatocyte batch HUB", "result": 1.03}, {"measurement": "CYP1A2 mRNA induction, times of control group", "setting": "CYP1A2; [6]", "result": 0.885}, {"measurement": "CYP1A2 mRNA induction, times of control group", "setting": "CYP1A2; 100 μM, hepatocyte batch MWB", "result": 0.797}, {"measurement": "Induction effect on CYP1A2 (conclusion)", "setting": "CYP1A2; 5, 25, and 100 µM, three batches of human hepatocytes", "result": "no induction effect"}, {"measurement": "CYP3A4 induction, % of PC", "setting": "CYP3A4; 5 μM, batch HUB", "result": 2.15, "unit": "%"}, {"measurement": "CYP3A4 induction, % of PC", "setting": "CYP3A4; 5 μM, batch LHuf 17905B", "result": 5.55, "unit": "%"}, {"measurement": "CYP3A4 induction, % of PC", "setting": "CYP3A4; 5 μM, batch MWB", "result": 1.99, "unit": "%"}, {"measurement": "CYP3A4 mRNA induction, times of control group", "setting": "CYP3A4; 5 μM, hepatocyte batch HUB", "result": 1.80}, {"measurement": "CYP3A4 mRNA induction, times of control group", "setting": "CYP3A4; [4]", "result": 2.30}, {"measurement": "CYP3A4 mRNA induction, times of control group", "setting": "CYP3A4; 5 μM, hepatocyte batch MWB", "result": 1.96}, {"measurement": "CYP3A4 induction, % of PC", "setting": "CYP3A4; 25 μM, batch HUB", "result": 3.06, "unit": "%"}, {"measurement": "CYP3A4 induction, % of PC", "setting": "CYP3A4; 25 μM, batch LHuf 17905B", "result": 12.1, "unit": "%"}, {"measurement": "CYP3A4 induction, % of PC", "setting": "CYP3A4; 25 μM, batch MWB", "result": 6.32, "unit": "%"}, {"measurement": "CYP3A4 mRNA induction, times of control group", "setting": "CYP3A4; 25 μM, hepatocyte batch HUB", "result": 2.13}, {"measurement": "CYP3A4 mRNA induction, times of control group", "setting": "CYP3A4; [5]", "result": 3.84}, {"measurement": "CYP3A4 mRNA induction, times of control group", "setting": "CYP3A4; 25 μM, hepatocyte batch MWB", "result": 4.05}, {"measurement": "CYP3A4 induction, % of PC", "setting": "CYP3A4; 100 μM, batch HUB", "result": 13.5, "unit": "%"}, {"measurement": "CYP3A4 induction, % of PC", "setting": "CYP3A4; 100 μM, batch LHuf 17905B", "result": 54.2, "unit": "%"}, {"measurement": "CYP3A4 induction, % of PC", "setting": "CYP3A4; 100 μM, batch MWB", "result": 29.3, "unit": "%"}, {"measurement": "CYP3A4 mRNA induction, times of control group", "setting": "CYP3A4; 100 μM, hepatocyte batch HUB", "result": 6.01}, {"measurement": "CYP3A4 mRNA induction, times of control group", "setting": "CYP3A4; [6]", "result": 13.7}, {"measurement": "CYP3A4 mRNA induction, times of control group", "setting": "CYP3A4; 100 μM, hepatocyte batch MWB", "result": 15.2}, {"measurement": "Induction effect on CYP3A4 (conclusion)", "setting": "CYP3A4; 5, 25, and 100 µM, three batches of primary human hepatocytes", "result": "has an inducing effect"}, {"measurement": "Deg-AZM remaining", "setting": "pooled HLM", "result": 45.7, "unit": "%"}, {"measurement": "Residual proportion of Deg-AZM", "setting": "[3]", "result": 107, "unit": "%"}]}]}
